Reference: the SangsterLogP compilation

Experiment: method code SF-HPLC, from DOI: 10.1002/jps.1029, PMID: 11357176

Row | Structure (SMILES) | logP
1 | O=c1ccc2cc3ccoc3cc2o1 | 2.08
2 | COc1c2occc2cc2ccc(=O)oc12 | 2.07

Experiment: not given

Row | Structure (SMILES) | logP
3 | Cc1cc2c(o1)c(C)cc1c(C)cc(=O)oc12 | 3.15
4 | Cc1cc2ccc(=O)oc2c2c(C)coc12 | 2.88
5 | Cc1cc2c(ccc3c(C)cc(=O)n(C)c32)o1 | 3.08
6 | Cc1cc(=O)oc2c1ccc1occc12 | 2.34
7 | Cc1coc2ccc3ccc(=O)oc3c12 | 2.51
8 | Cc1oc2c(C)cc3ccc(=O)oc3c2c1C | 3.34
9 | Cc1cc2c(C)c3ccc(=O)oc3cc2o1 | 2.84
10 | Cc1oc2cc3oc(=O)ccc3cc2c1C | 2.93
11 | Cc1coc2c(C)c3oc(=O)ccc3cc12 | 2.81
12 | Cc1coc2nc3oc(=O)cc(C)c3cc12 | 1.82
13 | Cc1oc2cc3oc(=O)ccc3c(C)c2c1C | 3.27
14 | Cc1sc2c(C)cc3c(C)cc(=O)oc3c2c1C | 4.09
15 | Cc1cc(=O)oc2c1cc(C)c1occ(C)c12 | 3.23
16 | Cc1cc(=O)oc2c1cc(C)c1occc12 | 2.79
17 | COc1c2oc(=O)c(C)cc2cc2c(C)c(C)oc12 | 3.28
18 | Cc1cc2occc2c2oc(=O)ccc12 | 2.5
19 | Cc1cc2cc3c(C)cc(=O)oc3c(C)c2o1 | 3.25
20 | O=c1ccc2cc3ccsc3cc2o1 | 2.27
21 | Cc1cc(=O)[nH]c2c1cc(C)c1occ(C)c12 | 3.13
22 | Cc1cc2c(ccc3c(C)cc(=O)oc32)o1 | 2.79
23 | Cc1cc2c(ccc3c(C)c(C)c(=O)n(C)c32)o1 | 3.54
24 | Cc1coc2nc3oc(=O)ccc3c(C)c12 | 1.73
25 | Cc1cc2occ(C)c2c2oc(=O)ccc12 | 2.92
26 | Cc1c2ccoc2cc2oc(=O)ccc12 | 2.33

Row | Structure (SMILES) | logP
27 | Cc1c2oc(=O)ccc2c(C)c2c(C)coc12 | 3.35
28 | Cc1cc2c(cc(C)c3ccc(=O)oc32)o1 | 2.92
29 | Cc1c(C)c2cc3c(C)coc3nc2oc1=O | 2.25
30 | Cc1oc2cc3oc(=O)ncc3cc2c1C | 1.97
31 | Cc1cc(=O)oc2c1ccc1occ(C)c12 | 2.81
32 | Cc1c(C)c2cc(C)c3occc3c2oc1=O | 3.23
33 | Cc1cc2ccc(=O)oc2c2ccoc12 | 2.43
34 | Cc1cc2c(ccc3c(C)c(C)c(=O)oc32)o1 | 3.27
35 | Cc1oc2ccc3c(C)cc(=O)oc3c2c1C | 3.28
36 | Cc1coc2cc3oc(=O)ccc3cc12 | 2.47
37 | Cc1oc2nc3oc(=O)ccc3c(C)c2c1C | 2.19
38 | Cc1sc2cc3oc(=O)cc(C)c3cc2c1C | 3.48
39 | Cc1cc2c(o1)c(C)cc1ccc(=O)oc12 | 2.85
40 | Cc1c(C)c2cc3c(C)coc3c(C)c2oc1=O | 3.62
41 | Cc1coc2c(C)c3oc(=O)cc(C)c3cc12 | 3.25
42 | Cc1sc2ccc3c(C)cc(=O)oc3c2c1C | 3.65
43 | Cc1oc2ccc3c(C)cc(=O)[nH]c3c2c1C | 3.18
44 | Cc1c2occc2cc2ccc(=O)oc12 | 2.48
45 | Cc1cc2c(ccc3cc(C)c(=O)oc32)o1 | 2.97
46 | Cc1cc2ccc3occc3c2oc1=O | 2.49
47 | Cc1cc2c(o1)c(C)c(C)c1ccc(=O)oc12 | 3.26
48 | Cc1oc2c(C)cc3c(C)cc(O)nc3c2c1C | 3.5
49 | Cc1coc2nc3oc(=O)cc(C)c3c(C)c12 | 2.25
50 | Cc1c(C)c2cc3ccoc3cc2oc1=O | 2.77

Row | Structure (SMILES) | logP
51 | Cc1coc2c1c(C)cc1oc(=O)cc(C)c12 | 3.28
52 | Cc1coc2cc3oc(=O)cc(C)c3cc12 | 2.76
53 | O=c1ccc2ccc3occc3c2s1 | 2.58
54 | Cc1cc2c(C)cc3oc(=O)cc(C)c3c2o1 | 3.25
55 | Cc1cc(=O)oc2c(C)c3occc3cc12 | 2.82
56 | Cc1coc2cc3oc(=O)ccc3c(C)c12 | 2.79
57 | Cc1cc2c(cc(C)c3c(C)cc(=O)oc32)o1 | 3.36
58 | Cc1c(C)c2occc2c2oc(=O)ccc12 | 2.84
59 | Cc1oc2nc3oc(=O)c(C)c(C)c3cc2c1C | 2.71
60 | Cc1cc2cc3ccc(=O)oc3c(C)c2o1 | 2.93
61 | Cc1oc2ccc3ccc(=O)oc3c2c1C | 2.94
62 | Cc1oc2cc3oc(=O)cc(C)c3cc2c1C | 3.22
63 | COc1c2occc2cc2ccc(=O)sc12 | 2.66
64 | Cc1cc(=O)n(C)c2c1cc(C)c1occ(C)c12 | 3.3
65 | Cc1cc2c(o1)c(C)cc1c(C)cc(=O)n(C)c12 | 3.43
66 | Cc1cc2cc3c(C)cc(=O)oc3cc2o1 | 2.82
67 | Cc1cc2c(ccc3ccc(=O)oc32)o1 | 2.49
68 | O=c1ccc2ccc3occc3c2[nH]1 | 1.82
69 | Cc1c(C)c2cc3ccoc3c(C)c2oc1=O | 3.25
70 | Cc1cc2ccc3occ(C)c3c2oc1=O | 2.97
71 | O=c1ccc2cc3ccoc3cc2s1 | 2.61
72 | Cc1c(C)c2ccc3occ(C)c3c2oc1=O | 3.25
73 | O=c1ccc2cc3ccsc3cc2s1 | 2.96
